# According to patent US8252820B2, “1-orthofluorophenyl substituted 1,2,5-thiazolidinedione derivatives as PTP-as inhibitors” (Novartis AG, priority 2005, dated 2012):
# Counter-ions that a name gives are not always drawn.
# Target: T1, human PTP-1B (Homo sapiens, UniProt P18031)
# T1 construct: recombinant human PTP-1B[1-298] or PTP-1B[1-322]
# T1 sequence (P18031 1-298 limits assumed): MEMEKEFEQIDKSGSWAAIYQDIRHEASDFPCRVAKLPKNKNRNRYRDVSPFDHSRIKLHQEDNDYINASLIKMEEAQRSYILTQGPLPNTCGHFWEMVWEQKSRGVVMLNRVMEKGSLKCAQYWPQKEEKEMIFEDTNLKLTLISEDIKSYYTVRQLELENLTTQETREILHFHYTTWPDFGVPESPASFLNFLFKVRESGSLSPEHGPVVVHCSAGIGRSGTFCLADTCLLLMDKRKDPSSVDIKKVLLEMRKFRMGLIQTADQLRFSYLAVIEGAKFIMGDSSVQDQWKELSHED
# Assay: PTP-1B inhibitory activity in vitro (IC50)
# Type: biochemical
# Details: inhibitory activity to human PTP-1B
# Procedure: Assessment of human PTP-1B (hPTP-1B) activity in the presence of various agents is determined by measuring the amount of inorganic phosphate released from a phosphopeptide substrate using a 96-well microtiter plate format. The assay (100 μL) is performed in an assay buffer comprised of 50 mM TRIS (pH 7.5), 50 mM NaCl, 3 mM DTT at ambient temperature. The assay is typically performed in the presence of 0.4% dimethyl sulfoxide (DMSO). However, concentrations as high as 10% are used with certain poorly soluble compounds. […] Inorganic phosphate, a product of the enzyme reaction, is quantitiated after 15 min as the green color resulting from complexing with the […] reagent and is determined as an A620 using a Molecular Devices (Sunnyvale, Calif.) SpectraMAX Plus spectrophotometer. […] Activity is defined as the net change in absorbance resulting from the activity of the uninhibited hPTP-1B[1-411] minus that of a tube with acid-inactivated hPTP-1B[1-411]. […] Alternatively, the assessment of human PTP-1B activity in the presence of various agents may be determined by measuring the hydrolysis products of known competing substrates. For example, cleavage of substrate para-nitrophenylphosphate (pNPP) results in the release of the yellow-colored para-nitrophenol (pNP) which can be monitored in real time using a spectrophotometer. […] Absorbance at 405 nm is measured using any standard 384 well plate reader. […]
row,IC50,SMILES
1,104 nM,"O=C1CN(c2c(O)cc(CC3CCCCC3)cc2F)S(=O)(=O)N1 [Example No. 13, 5-(4-Cyclohexylmethyl-2-fluoro-6-hydroxyphenyl)-1,1-dioxo-1,2,5-thiadiazolidin-3-one]"
2,158 nM,"O=C1CN(c2c(O)c(F)cc(F)c2F)S(=O)(=O)N1 [Example No. 26, 1,1-Dioxo-5-(2,3,6-trifluoro-6-hydroxy-phenyl)-1,2,5]thiadiazolidin-3-one potassium salt]"
